This is an account of results in paper PMC4259358, “Functional Characterization of Nuclear Localization and Export Signals in Hepatitis C Virus Proteins and Their Role in the Membranous Web” (PLoS ONE, 2014).

Ends that are not written are not given here.

Test [1] deals with JFH-1 HCV. The format is cell-based, Hepatitis C virus. Conditions: for time of addition at which the ability to inhibit HCV infection is lost: Huh7.5, JFH-1, 4 h at 4°C then 37°C, added at 2 h intervals, % NS5A-positive cells at 72 h PTS, Ezetimibe 30 µM, LMB 18 nM, BMS-986094 10 nM, DGAT 1 inhibitor 10 nM, n = 3.
Method: Huh7.5 cells were infected with JFH-1 HCV and maintained at 4°C for 4 hours (h) to synchronize the cells before shifting the temperature to 37°C. Post temperature shift (PTS), infected cells were incubated for various lengths of times prior to the addition of peptides or known inhibitors of HCV at 2 h intervals. […] We deliberately selected the final time point of 72 h PTS to reflect the number of cells infected by a second round of infection. […] This would be reflected by the number of cells infected in the second round as measured at 72 h PTS.
In order to elucidate the time points in infection when the nuclear transport signals bearing peptides are functional, cells were synchronously infected and treated with the indicated peptides. Each time point (2 h intervals) represents a culture treated with the indicated reagent at the specified time post temperature shift (PTS) and initiation of HCV infection. […] (A) Known inhibitors of HCV production (Ezetimibe (30 µM), LMB (18 nM), BMS-986094 (10 nM) and DGAT 1 inhibitor (10 nM)) and control (Pen peptide 100 µM, DMSO 2%, no treatment, and no infection) were examined. […] Error bars represent ± standard deviation, n = 3.
For the time of addition experiments, cells were seeded at a density of 6.25×10^4 cells/well in a 96-well plate and infected with 0.1 genomic equivalents of serially passaged JFH-1 virus on ice: cells then were incubated at 4°C for 4 h.
Briefly, Huh7.5 cells were infected as described above and the test compounds were added to different wells at different time points before the temperature shift (-4 h and -2 h) and every 2 h after the temperature shift (0, 2, 4,…, 48 h). […] The infection levels were calculated by counting infected and total cells numbers in ten random fields for each condition. The non-treated cell infection level was normalized to 100% and all other infections were calculated based on that normalization.
Test [2] concerns JFH-1 HCV. Conditions: literature value; cited from earlier work. The protocol:
Ezetimibe is known to inhibit a late stage of HCV entry, and it lost its ability to inhibit HCV infection when added 4–10 h PTS, thus defining the last phase of entry (Fig. 6A). […] In our study, the inhibitory effect of LMB was lost 10–14 hours PTS (Fig. 6A). BMS-986094, an inhibitor of NS5B polymerase, lost its ability to inhibit HCV infection when added 10–24 h PTS, thus defining the period of viral RNA synthesis (Fig. 6A). The ...

The target of another test is T1, XPO1 (Homo sapiens, UniProt O14980).
T1 construct: Expression and purification of full length XPO1 were perform according to methods described in a previous publication; His tag; made in house; host or cells: Escherichia coli BL21(DE3), pET21 vector
T1 sequence (O14980 whole entry): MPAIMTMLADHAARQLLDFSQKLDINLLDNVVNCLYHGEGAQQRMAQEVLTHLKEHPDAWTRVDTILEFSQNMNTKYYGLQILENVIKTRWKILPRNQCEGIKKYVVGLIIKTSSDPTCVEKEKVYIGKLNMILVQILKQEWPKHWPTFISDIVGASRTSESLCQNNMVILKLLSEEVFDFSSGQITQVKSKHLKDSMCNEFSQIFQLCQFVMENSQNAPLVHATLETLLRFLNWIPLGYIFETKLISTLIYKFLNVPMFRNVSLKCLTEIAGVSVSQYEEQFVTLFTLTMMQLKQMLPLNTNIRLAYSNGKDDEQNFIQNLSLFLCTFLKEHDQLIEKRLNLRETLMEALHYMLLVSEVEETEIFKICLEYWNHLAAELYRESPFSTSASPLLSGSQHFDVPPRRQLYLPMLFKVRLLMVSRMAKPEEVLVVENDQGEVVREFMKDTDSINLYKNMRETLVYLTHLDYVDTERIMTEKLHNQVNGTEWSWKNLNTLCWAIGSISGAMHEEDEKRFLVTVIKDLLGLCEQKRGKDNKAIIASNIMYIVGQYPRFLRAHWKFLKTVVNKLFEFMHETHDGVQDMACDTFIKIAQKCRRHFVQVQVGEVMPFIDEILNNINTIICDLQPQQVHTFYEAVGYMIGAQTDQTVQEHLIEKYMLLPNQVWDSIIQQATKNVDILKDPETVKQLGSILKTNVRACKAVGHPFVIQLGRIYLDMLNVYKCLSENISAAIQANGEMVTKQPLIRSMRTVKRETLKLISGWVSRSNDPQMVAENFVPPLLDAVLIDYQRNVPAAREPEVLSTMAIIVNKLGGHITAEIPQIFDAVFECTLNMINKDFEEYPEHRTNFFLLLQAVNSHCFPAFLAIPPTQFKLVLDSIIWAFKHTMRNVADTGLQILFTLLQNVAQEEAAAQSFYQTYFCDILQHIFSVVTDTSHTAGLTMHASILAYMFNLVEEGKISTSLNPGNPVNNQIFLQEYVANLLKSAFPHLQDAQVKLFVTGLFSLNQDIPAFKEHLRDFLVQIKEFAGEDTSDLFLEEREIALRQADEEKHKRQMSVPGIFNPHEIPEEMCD
As to the kind of experiment: ELISA-based binding assay (Kd(app)). Background: ELISA stands for enzyme-linked immunosorbent assay.

For another test, the system named is HEK293T cells. As to the kind of experiment: Localization of nuclear transport signal-double GFP reporter in HEK293T cells. Type of test: cell-based. Details: key: +++ for strong; ++ for moderate; + for weak; − for no localization. Conditions: double GFP cargo, 24 h post transfection, fluorescence quantified with ImageJ (S6, S7 Figures); NES/SEN on SV40 NLS double GFP. An excerpt:
To determine whether NTF binding sites found in the HCV proteins were functional nuclear transport signals, we constructed reporter proteins each consisting of one of the HCV proteins NTF binding sites followed by two C-terminal, tandemly repeated GFP molecules. The double GFP moieties were required to keep the reporter from entering the nucleus, since a single GFP is small enough to diffuse freely through NPCs, [35]. As controls, constructs containing the reversed amino-acid residue sequence of the potential NLS (SLN) were also examined using the double GFP reporter assay (S5 Figure). These SLN reporters were predicted to not accumulate in the nucleoplasm. In addition, reporters to examine the functionality of the potential XPO1 binding domains were also constructed. These reporters consist of an SV40 NLS and a double GFP molecule followed by one of the various potential NESs at the C-terminus (S5 Figure). In the absence of a functional NES, this reporter will accumulate in the nucleus. However, a functional NES is predicted to export the reporter, leading to increased steady-state levels of the reporter in the cytoplasm.
Figure 4 Functionality of the putative nuclear transport signals in cells. Cells were transfected by the vectors encoding a nuclear transport reporter consisting of a tandemly repeated double GFP fused to the indicated C-terminal nuclear transport signal (panels A-N). At 24 h following transfection, cells were fixed and stained with Hoechst to visualize the nucleus. Cells were examined using a Zeiss inverted Axiovert 200 M microscope to assess the localization of the GFP (green) and its relationship to the nucleus (blue). A hashed yellow square demarcates the magnified area shown in the right-most image of each panel. Fluorescent intensity was quantified using ImageJ v. […] Analysis of the reverse sequences of each transport signal as well as the mutant SV40 NLS was also performed and the results are shown in S7 Figure.
Nuclear transport signals-double GFP constructs were transfected into HEK293T cells using lipofectamine 2000. At 24 h post transfection cells were fixed, stained, and visualized for localization of the GFP. For detailed information see S1 Methods.
Nuclear transport signal-double GFP constructs were transfected into HEK293T cells using lipofectamine 2000 reagent (Invitrogen, 11668019). At 24 h post transfection cells were fixed with 3.76% formaldehyde at room temperature (Sigma, F8775-500ML) for 8 min then permeabilized in 0.2% Triton X-100 (VWR, CA97062-208) for 2 min. Cells were washed three times with X1 PBS and were stained with Hoechst 1:5000 in X1 PBS for 5 min followed by three washes with X1 PBS. The cells were visualized using a Zeiss inverted Axiovert 200M microscope with a 20x/0.8 objective lens to examine localization of the GFP. At least ten random fields of cells were imaged for each combination. Channels were merged using ImageJ software (National Institutes of Health). Photoshop Elements 10 (Adobe) software was used to adjust brightness and contrast levels for individual images and to assemble images into figures.

The target in the next test is T2, IPOA5 (Homo sapiens, UniProt P52294).
T2 construct: Expression and purification of full length IPOA5, IPO5 were perform according to methods described previously; His tag; made in house; host or cells: Escherichia coli BL21(DE3), pET21 vector
T2 sequence (P52294 whole entry): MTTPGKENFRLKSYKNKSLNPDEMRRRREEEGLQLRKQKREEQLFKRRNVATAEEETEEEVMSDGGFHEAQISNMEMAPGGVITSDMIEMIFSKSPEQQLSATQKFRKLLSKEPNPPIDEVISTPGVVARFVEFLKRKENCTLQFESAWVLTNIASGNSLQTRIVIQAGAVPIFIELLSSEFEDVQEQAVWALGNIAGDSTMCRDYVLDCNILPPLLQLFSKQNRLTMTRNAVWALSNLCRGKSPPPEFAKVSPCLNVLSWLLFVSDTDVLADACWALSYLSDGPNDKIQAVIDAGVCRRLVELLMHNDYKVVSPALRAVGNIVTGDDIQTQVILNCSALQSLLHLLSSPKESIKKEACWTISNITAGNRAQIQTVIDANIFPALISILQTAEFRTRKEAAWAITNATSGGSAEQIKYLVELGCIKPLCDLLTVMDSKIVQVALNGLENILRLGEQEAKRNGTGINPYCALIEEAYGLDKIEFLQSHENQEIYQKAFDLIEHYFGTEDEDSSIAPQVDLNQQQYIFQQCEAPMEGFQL
As to the kind of experiment: biochemical. The format is binding.

The test system of test [3] is interaction of core, NS2, or NS3 with IPOA5. As to the kind of experiment: Peptide competition of HCV protein-NTF interaction (ELISA in-vitro, Co-IP in cell culture). The format is biochemical. Conditions: ELISA with 100 µM peptide and Co-IP of V5 tagged HCV proteins; n = 3. The protocol:
(§1) To examine the specificity of the interactions between HCV proteins and NTFs, we examined the ability of each putative NLS or NES peptide identified in Fig. 1 to disrupt the interaction between the HCV protein and the NTF, using an ELISA in-vitro and co-immunoprecipitation (Co-IP) in cell culture assays (Fig. 3, S3 and S4 Figure). The ELISA plates were coated with HCV proteins while NTFs and competitive peptides were added, and the fraction of bound NTF was measured using NTF specific antibodies. The Co-IP was conducted by expression of V5 tagged HCV proteins in the presence of competing peptides, followed by immunoprecipitation with V5 specific antibody and immunoblotting with specific NTF antibodies.
(§2) Figure 3 Analysis of HCV protein binding to NTFs in the presence of NLS and NES peptides. ELISA plates were coated with HCV proteins and the relative binding of the different NTFs was monitored by ELISA in the presence of 100 µM of the indicated peptide. For the Co-IP study, cells were transfected by plasmid encoding to V5 tagged HCV proteins and treated by the indicated peptides. After 48 h, cells were lysed and Co-IP using anti V5 antibody and blotted to enable detection of the different NTFs. Western blots were quantified using Multi Gauge v. 3.0. […] The y-axis represents the percentage of NTF bound to the HCV protein; the interaction without the peptide is set to 100%. Error bars represent ± standard deviation, n = 3. The significant difference between the untreated (no peptide) and peptide treated is indicated by: * p<0.05, ** p<0.01, *** p<0.001, **** p<0.0001.
(§3) Protein-peptide and protein-protein binding were estimated using an ELISA-based binding assay as described previously. Briefly, ELISA plates were coated with 200 µl of a 10 µg/ml of synthetic peptide or recombinant protein in a carbonate buffer (0.05 M Na2CO3/0.05 M NaHCO3, pH 9.6) overnight at 4°C. After incubation, the solution was removed, and the plates were washed three times with PBS. […] Each measurement was performed in duplicate.

Test [4] has as its system interaction of core, NS3, or NS5A with IPO5. The description is as above. Type of test: biochemical. Conditions: ELISA with 100 µM peptide and Co-IP of V5 tagged HCV proteins; n = 3. The protocol:
as §1, §2, §3

Test [5] concerns core- and NS2-XPO1 interactions. The description is as above. The format is biochemical. Conditions: plates coated with HCV protein, 100 µM peptide, n = 3. The protocol:
as §1, §2, §3

The target in a further test is T3, IPO5 (Homo sapiens, UniProt O00410).
T3 construct: Expression and purification of full length IPOA5, IPO5 were perform according to methods described previously; His tag; made in house; host or cells: Escherichia coli BL21(DE3), pET21 vector
T3 sequence (O00410 whole entry): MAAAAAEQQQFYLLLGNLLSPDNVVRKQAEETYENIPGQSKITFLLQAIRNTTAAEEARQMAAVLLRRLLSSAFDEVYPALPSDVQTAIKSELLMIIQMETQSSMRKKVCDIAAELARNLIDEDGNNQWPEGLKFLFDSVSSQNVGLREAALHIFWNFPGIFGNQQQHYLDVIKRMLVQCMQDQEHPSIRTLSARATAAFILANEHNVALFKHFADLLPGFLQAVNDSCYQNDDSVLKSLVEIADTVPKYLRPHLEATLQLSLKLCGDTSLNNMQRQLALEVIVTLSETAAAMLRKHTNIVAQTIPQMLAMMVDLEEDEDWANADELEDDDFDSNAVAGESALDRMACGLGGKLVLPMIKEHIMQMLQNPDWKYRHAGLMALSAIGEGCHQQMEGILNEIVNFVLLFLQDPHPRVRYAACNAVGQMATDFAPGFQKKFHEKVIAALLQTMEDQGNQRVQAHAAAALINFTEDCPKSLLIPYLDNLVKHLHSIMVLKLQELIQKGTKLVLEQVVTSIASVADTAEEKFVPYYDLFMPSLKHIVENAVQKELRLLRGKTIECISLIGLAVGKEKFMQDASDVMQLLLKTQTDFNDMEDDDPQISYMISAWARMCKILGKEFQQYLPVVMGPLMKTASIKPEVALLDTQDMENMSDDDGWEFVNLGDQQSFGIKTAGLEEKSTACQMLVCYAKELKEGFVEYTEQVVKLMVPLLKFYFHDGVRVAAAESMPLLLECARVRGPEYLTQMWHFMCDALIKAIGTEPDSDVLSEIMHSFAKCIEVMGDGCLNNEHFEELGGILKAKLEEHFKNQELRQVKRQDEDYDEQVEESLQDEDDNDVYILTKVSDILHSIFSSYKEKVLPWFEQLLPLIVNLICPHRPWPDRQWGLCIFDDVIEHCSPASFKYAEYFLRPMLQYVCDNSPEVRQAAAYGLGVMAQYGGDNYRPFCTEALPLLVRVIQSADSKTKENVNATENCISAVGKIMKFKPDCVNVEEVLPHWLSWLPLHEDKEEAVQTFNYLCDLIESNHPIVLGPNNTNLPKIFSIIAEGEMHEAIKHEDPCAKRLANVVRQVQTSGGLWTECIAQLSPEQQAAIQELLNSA
As to the kind of experiment: biochemical. Type of test: binding.

As to `COc1nc(N)nc2c1ncn2[C@@H]1O[C@H](COP(=O)(N[C@@H](C)C(=O)OCC(C)(C)C)Oc2cccc3ccccc23)[C@@H](O)[C@@]1(C)O` (stereo partly shown) [BMS-986094], in the test with JFH-1 HCV [1], the “time of addition at which the ability to inhibit HCV infection is lost” value is listed as 10–24 h PTS.
With `O=C1[C@H](CC[C@H](O)c2ccc(F)cc2)[C@@H](c2ccc(O)cc2)N1c1ccc(F)cc1` [Ezetimibe], the “time of addition at which the ability to inhibit HCV infection is lost” value with JFH-1 HCV [1] is listed as 4–10 h PTS.
Consider `CCC(=C/[C@H](C)C/C=C/C(C)=C/[C@@H](C)C(=O)[C@@H](C)[C@H](O)[C@@H](C)C/C(C)=C/C(=O)O)/C=C/[C@@H]1OC(=O)C=C[C@@H]1C` [LMB, Leptomycin B], for which, in the test with JFH-1 HCV [2], the “time at which the inhibitory effect on HCV was lost” value is 8 h post infection.
Regarding `CC[C@H](C)[C@H](NC(=O)[C@H](CC(C)C)NC(=O)[C@H](CCCNC(=N)N)NC(=O)[C@H](C)NC(=O)[C@H](CC(C)C)NC(=O)[C@H](Cc1ccccc1)NC(=O)[C@H](CC(C)C)NC(=O)[C@H](CCCCN)NC(=O)[C@H](Cc1ccc(O)cc1)NC(=O)[C@H](Cc1c[nH]cn1)NC(=O)[C@@H]1CCCN1C(=O)[C@H](CO)NC(=O)[C@H](CC(C)C)NC(=O)[C@@H](NC(=O)[C@H](CC(C)C)NC(=O)[C@H](CC(C)C)NC(=O)[C@@H](NC(=O)[C@@H](N)CC(C)C)[C@@H](C)CC)[C@@H](C)O)C(=O)N[C@@H](Cc1c[nH]c2ccccc12)C(=O)N[C@@H](Cc1c[nH]c2ccccc12)C(=O)N[C@@H](CC(C)C)C(=O)N[C@@H](CCC(N)=O)C(=O)N[C@@H](Cc1ccc(O)cc1)C(=O)N[C@@H](Cc1ccccc1)C(=O)N[C@H](C(=O)N[C@H](C(=O)N[C@@H](CCCNC(=N)N)C(=O)N[C@@H](CCC(N)=O)C(=O)N[C@H](C(=O)N[C@@H](CCCCN)C(=O)N[C@H](C(=O)N[C@@H](Cc1c[nH]c2ccccc12)C(=O)N[C@@H](Cc1ccccc1)C(=O)N[C@@H](CCC(N)=O)C(=O)N[C@@H](CC(N)=O)C(=O)N[C@@H](CCCNC(=N)N)C(=O)N[C@@H](CCCNC(=N)N)C(=O)N[C@@H](CCSC)C(=O)N[C@@H](CCCCN)C(=O)N[C@@H](Cc1c[nH]c2ccccc12)C(=O)N[C@@H](CCCCN)C(=O)N[C@@H](CCCCN)C(=O)O)[C@@H](C)CC)[C@@H](C)CC)[C@@H](C)O)[C@@H](C)CC` [NS2 NES], the Kd on XPO1 is 79.9 ± 25.6 nM.
“PKTKRKVRQIKIWFQNRRMKWKK [SV40 mut NLS, reference compound]”: in the test with HEK293T cells, the “Localization Cytoplasmic” value is recorded as “+++” and the “Localization Nuclear” value is “−”. At IPOA5 (ELISA, immobilized peptide or HCV protein), the “binding to IPOA5 (in words)” value is recorded as “does not bind IPOA5”. Besides, the “effect of peptide on HCV protein-IPOA5 interaction (in words)” value in test [3] is “do not interfere with IPOA5, IPO5 or XPO1 binding”. Moreover, the “effect of peptide on HCV protein-IPO5 interaction (in words)” value in [4] is “do not interfere with IPOA5, IPO5 or XPO1 binding”. In addition, the “effect of peptide on HCV protein-XPO1 interaction (in words), ELISA” value in test [5] is listed as “do not interfere with IPOA5, IPO5 or XPO1 binding”.
RQIKIWFQNRRMKWKK [Pen]: in [3], the “effect of peptide on HCV protein-IPOA5 interaction (in words)” value is on record as “do not interfere with IPOA5, IPO5 or XPO1 binding”. In test [4], the “effect of peptide on HCV protein-IPO5 interaction (in words)” value is recorded as “do not interfere with IPOA5, IPO5 or XPO1 binding”. In test [5], the “effect of peptide on HCV protein-XPO1 interaction (in words), ELISA” value is “do not interfere with IPOA5, IPO5 or XPO1 binding”. The “effect on infection (in words)” value in the test on JFH-1 HCV [1] (Pen peptide 100 µM, time of addition experiment) is “had no effect on infection”.
In the case of “RSQRRGRTTGRGRRQIKIWFQNRRMKWKK [NS3 NLS 2]”, the Kd at IPOA5 turned out to be 36.6 ± 7.13 nM; at IPO5 it was 35.8 ± 7.26 nM.
